Earlier results on 2 molecules are cited in patent publication EP3142678B1, “USE OF CRANBERRY PROANTHOCYANIDINS WITH HERBAL COMPONENTS FOR TREATING AND PREVENTING URINARY TRACT INFECTIONS” (Specchiasol S.r.l., priority 2014, dated 2015).

The test system of the series is slime-producing uropathogenic Escherichia coli strains. As to conditions: for percentage of residual slime relative to the control: range over four strains; for reduced biofilms: fosfomycin 2000 mg/l.

Read-outs that look alike come from different tables or passages of the source.

On to `CC(=O)N[C@@H](CS)C(=O)O` [NAC, N-Acetylcysteine], for which the “percentage of residual slime relative to the control” value is on record as 62.5-100% (0.007 mg/ml of NAC) and 26.2-64.1% (8 mg/ml of NAC). Under “pre-formed biofilms, NAC at the highest concentrations used”, the “remaining exopolysaccharide matrix, of the amount found with the untreated control” value was 25-68%.
As to `C[C@@H]1O[C@@H]1P(=O)(O)O` [fosfomycin], the reduced biofilms (initial (5 h) biofilms) is 40-57% and the reduced biofilms (mature (48 h) biofilms) is 41-49%.
